Test results taken from US5486528A, “Basic ethers and process for the preparation thereof” (Egis Gyogyszergyar Rt., priority 1993, dated 1996).
pIC50: −log10 of the molar value.

Legend:
mice = assay: Effect on the spontaneous motor activity (Borsy), sedative effect; format: in vivo, mouse; conditions: Mus musculus, po, 0.5 h; mice, orally, 30 minutes; read-out: ID50, spontaneous motor activity
Description: 2.1. Effect on the spontaneous motor activity
The test was carried out according to the method of Borsy et al. Groups consisting of 3 mice each were treated orally with different doses of the compounds to be tested. Then the test animals were placed into a 10-channel Dews system equipment. In this equipment the number of interruptions of infrared beam within 30 minutes was counted. […] Int. Pharmacodyn. 124, 1 (1960)].

gastric-acid secretion = assay: Gastric-acid-secretion test (Shay); format: in vivo, rat; conditions: po; rat, p.o., 4 hours after ligature; read-out: Acid-secretion inhibition, ED50
Description: 2. […] The liberated gastric-acid content was determined by titration 4 hours after the ligature of the duodenum.

Male Wistar rats [1] = assay: Vogel test (drinking conflict test), anxiolytic effect; format: in vivo, rat (Wistar); conditions: for minimal effective dose: ip, 0.5 h, rat, intraperitoneally, half an hour before testing, read-out: MED (minimum effective dose), Vogel test; for anxiolytic activity (in words): Vogel test, compared with Meprobamate or within the group
Description: 1.1. Vogel test (drinking conflict test)
The anxiolytic effect was tested by using the method of Vogel et al. Male Wistar rats of 160 to 180 g body weight were kept free of food and drinking water for 24 and 48 hours, respectively. Test and carrier substances were administered intraperitoneally half an hour before testing. Animals within the experimental chamber were provided with drinking water through an inserted tube. After the animals' each twenty lapping for water the device emitted a 2 mA intensity electric shock through the drinking tube. During 5 minutes the shocks tolerated by the animals in order to quench their thirst were counted. The effect of treatment was expressed as the % increase of the tolerated shocks. The minimum effective dose (MED) was determined for each test compound [Volge, J. R., Beer, B., Clody, D. E.: Psychopharmacologia (Berl.) 21, 1 (1971)].

[2] = Acute toxicity on mice (Litchfield and Wilcoxon); conditions: mouse, in vivo, ip
[3] = tested on: erosion of the stomach wall; assay: Cytoprotective effect, ethanol erosion (Robert); format: in vivo; conditions: rat
Description: 3. The cytoprotective effect was determined according to the method of Robert [Robert, A.: Cytoprotection by prostaglandins. […] Rats weighing 200 to 250 g were used as test animals. 1 cm^3 of abs. ethanol was introduced to the stomach to produce an erosion of the stomach wall. The length and frequency of the lesions (erosion index and frequency) were measured and the percentage inhibition of lesion formation compared with vehicle-treated animals was calculated.

[4] = Acute toxicity on mice (Litchfield and Wilcoxon); conditions: mouse, in vivo, po
Description: The test was carried out according to the method of Litchfield and Wilcoxon [Litchfield, J. T. and Wilcoxon, F. W.: J. Pharmacol. Exp. Ther., 96, 99 (1949)] by using white mice belonging to the CFLP strain and weighing 10 to 22 g, 10 animals per dose. The test compounds were administered orally in a volume of 20 cm^3 /kg.

Male Wistar rats [5] = assay: Conditioned avoidance response inhibition, antipsychotic effect; format: in vivo, rat (Wistar); conditions: rat, 30 mg/kg p.o.; ++ = p < 0.05
Description: Conditioned avoidance response inhibition
The antipsychotic (neuroleptic) effect was measured by the inhibition of the learned conditioned avoidance reflex. The male Wistar rats, used for the study, were of 120-150 g body weight at the commencement of learning. A shuttle box was used as experimental device; it consists of two parts, 24×24.5×23 cm each, separated by a wall with a 6×9 cm gate. In response to a sutiable warning stimulus, in order to avoid the punishing (unconditioned) stimulus, animals within the box passed through the gate from one part to the other. The warning, i.e. conditioned stimulus (CS), a white light (1 Hz) blinking for 15 seconds, was applied at the place of the actual animal existence. The unconditioned stimulus (US), in form of 0.6 mA intensity electric shock, was randomly applied to the paw during the last 5 seconds of the conditioned stimulus. The animal's movement during the CS and US from one part of the box to the other, was defined as avoidance and escape responses, respectively. Both responses ceased the actual stimulus and stopped the trial. The time elapsed until the next trial (intertrial interval, ITI) was 15 seconds. While one experiment was carried out daily, an experiment consisted of 80 trials. Learning efficiency was expressed as percentage of the successful to the total avoidances. Effect of the neuroleptic drugs was examined in animals with stabilized conditioned reflexes and with at least 75% learning efficiency. Dosing was carried out once a week, one hour before the measurement in the shuttle box. To calculate the neuroleptic effect (50% inhibiting dose, ID50) , results obtained after the treatment were compared to those obtained on the previous day (controls).

H^+ /K^+ -ATP-ase = target: T1, H^+ /K^+ -ATP-ase (Sus scrofa, UniProt P19156); assay: H+/K+-ATP-ase inhibition on partially purified pig's microsome specimen; format: biochemical
T1 construct: on partially purified pig's microsome specimen; from tissue; host or cells: pig stomach, partially purified microsomes
T1 sequence (P19156 2-1034 limits assumed): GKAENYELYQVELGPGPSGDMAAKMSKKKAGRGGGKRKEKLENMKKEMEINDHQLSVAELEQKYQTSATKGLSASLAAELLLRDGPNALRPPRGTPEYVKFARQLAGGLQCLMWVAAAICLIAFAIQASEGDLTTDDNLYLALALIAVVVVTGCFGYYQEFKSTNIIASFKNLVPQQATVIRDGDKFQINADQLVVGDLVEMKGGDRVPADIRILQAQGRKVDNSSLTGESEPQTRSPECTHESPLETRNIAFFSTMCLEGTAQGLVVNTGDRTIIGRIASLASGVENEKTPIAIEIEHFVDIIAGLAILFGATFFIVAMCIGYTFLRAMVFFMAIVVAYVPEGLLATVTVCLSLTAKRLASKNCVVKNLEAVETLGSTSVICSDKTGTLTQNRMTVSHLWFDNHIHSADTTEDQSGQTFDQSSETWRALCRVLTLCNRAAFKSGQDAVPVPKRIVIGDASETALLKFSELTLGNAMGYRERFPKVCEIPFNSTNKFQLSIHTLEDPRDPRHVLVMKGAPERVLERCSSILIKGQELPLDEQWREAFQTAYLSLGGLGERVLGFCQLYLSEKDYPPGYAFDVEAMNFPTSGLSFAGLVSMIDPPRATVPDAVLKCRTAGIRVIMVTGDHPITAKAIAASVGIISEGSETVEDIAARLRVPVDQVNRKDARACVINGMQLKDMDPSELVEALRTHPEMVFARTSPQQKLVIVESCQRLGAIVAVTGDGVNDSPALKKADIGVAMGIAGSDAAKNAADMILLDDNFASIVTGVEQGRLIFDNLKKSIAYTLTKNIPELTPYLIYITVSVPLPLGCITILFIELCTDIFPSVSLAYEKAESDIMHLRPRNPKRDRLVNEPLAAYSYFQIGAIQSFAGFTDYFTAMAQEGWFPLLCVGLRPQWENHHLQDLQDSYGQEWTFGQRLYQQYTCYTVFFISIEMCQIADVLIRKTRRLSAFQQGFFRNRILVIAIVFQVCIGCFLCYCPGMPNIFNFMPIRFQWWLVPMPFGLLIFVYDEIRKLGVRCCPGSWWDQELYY
T1 sequence (P18434 whole entry partner): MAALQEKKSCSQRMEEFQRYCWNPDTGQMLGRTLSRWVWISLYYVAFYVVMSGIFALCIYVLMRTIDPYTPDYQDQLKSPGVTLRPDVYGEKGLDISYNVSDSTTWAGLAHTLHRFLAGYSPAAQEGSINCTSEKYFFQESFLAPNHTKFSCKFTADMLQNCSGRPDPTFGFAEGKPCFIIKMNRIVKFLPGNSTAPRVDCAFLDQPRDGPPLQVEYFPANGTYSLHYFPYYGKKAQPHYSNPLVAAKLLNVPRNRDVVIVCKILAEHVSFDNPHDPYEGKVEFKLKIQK
Description: 1. H^+ /K^+ -ATP-ase inhibition on pig's stomach
The test was carried out according to the method of Rabon and Sachs [E. C. Rabon et al.: Preparation of gastric H^+ K^+ -ATP-ase, Methods in Enzymology, 157, 649-651 (1988)]. The activity of the prepared enzyme was measured both in the presence as in the absence of K^+ ions. The difference in the libaration of phosphorus representing the activity of the enzyme was measured.

rat's parietal cell = assay: 14C-aminopyrine accumulation by parietal cells; format: cell-based, rat (Wistar); conditions: stimulated rat parietal cells; read-out: ED50, inhibition of aminopyrine accumulation
Description: 4. Measurement of ^14 C-aminopyrine accumulation by parietal cells
Gastric mucosal cells were prepared from rat stomach. Wistar rats (130-160 g) were killed by decapitation, the stomachs were rapidly excised and their contents were washed out with saline. The stomachs were then everted and filled with 2.5 mg/ml of pronase containing buffer. These sacs were incubated for 60 minutes at 37° C. in carbogen gassed medium. This incubation was followed by gentle stirring at room temperature for 45 minutes by a magnetic stirrer in order to disperse the cells from the mucosa of the everted stomachs digested only from the serosal side. The viability of the cells was determined by trypan-blue exclusion test. The percentage of the parietal cells was determined on the basis of their morphological characteristics.
Acid production of the cells prepared in this way could be induced by cyclic AMP, histamine (in the presence of 3-isobutyl-1-methylxanthine) or carbachol. The acid production was assessed by measuring the accumulation of ^14 C-aminopyrine. The undissociated weak base can penetrate into the acid-containing compartments of the cells. […] Thus, the distribution of ^14 C-aminopyrine between the extracellular and intracellular spaces is an indirect quantitative index for the cellular acid production [W. Schepp, J. Schmidtler, C. […]

[6] = tested on: Male rats (Sprague Dawley); assay: Elevated plus maze test on rat, anxiolytic effect; format: in vivo, rat (Sprague Dawley); conditions: po, 1 h, p.o., pretreatment 60 minutes, read-out: MED (minimum effective dose), elevated plus maze
Description: 1.2. Elevated plus maze test on rat
The test was carried out with the aid of a wooden plus-shaped maze elevated to a height of 50 cm. Two arms--opposite to one another--were enclosed up to a height of 40 cm along their longer sides and at the end. The other two arms were without walls (open arms). The central 15×15 cm part was open. Male rats belonging to the Sprague Dawley strain and weighing 220 to 260 g were used as test animals. After pretreatment lasting 60 minutes the animals were placed into the central part of the maze. During the 5 minutes observation period the following parameters were recorded: […]
time spent on the open arms time spent on the closed arms number of open arm entries number of closed arm entries
The drug effect was expressed as percent increase of the time spent on the open arms and number of open arm entries. The minimum effective dose which caused a significant increase of the time spent on the open arms was calculated for every substance [Pelow, S., Chopin, P., File, S. E., Briley, M.: J. Neurosci. Methods 14, 149-167 (1985)].

`CC(C)CCC(/C=C/c1ccc(Cl)cc1)=N\OCCCN1CCCCC1` [Example 9, 1-(4-Chlorophenyl)-6-methyl-3-(E)-[3-(N-piperidinyl)-propoxyimino]-1-(E)-heptene] gave an ED50 (mice) of over 100 mg/kg, an ED50 (gastric-acid secretion) of 107 mg/kg and a minimal effective dose (Male Wistar rats [1]) of over 30 mg/kg. The LD50 at 336 h [2] was 160 mg/kg, the ED50 ([3]; po, 1 cm^3 abs. ethanol) was 5.9 mg/kg and the “Ratio of acid-secretion inhibition and erosion inhibition” value ([3]; ratio of ED50 values, p.o.) was 18.1. The LD50 at 336 h [4] was over 1000 mg/kg, the “Inhibition of the conditioned reflex (%)” value (Male Wistar rats [5]) was 16% and the pIC50 (H^+ /K^+ -ATP-ase) was 4.92. The pIC50 (rat's parietal cell) was 7.30.
With `CC(C)CC(/C=C/c1ccccc1)=N\OCCN1CCCCC1` [Example 10, 1-Phenyl-5-methyl-3-(E)-[2-(N-piperidinyl)-ethoxyimino]-1-(E)-hexene] the minimal effective dose [6] was 10 mg/kg, the ED50 (mice) was over 100 mg/kg and the “anxiolytic activity (in words)” value (Male Wistar rats [1]) was “the most active members in the structural group”. The minimal effective dose (Male Wistar rats [1]) was 0.1 mg/kg and the “Inhibition of the conditioned reflex (%)” value (Male Wistar rats [5]) was 13%.
In the case of `CCCC(/C=C/c1ccccc1)=N\OCCCN(C)C` [Example 21, 1-Phenyl-3-(E)-[3-(dimethylamino)-propoxyimino]-1-(E)-hexene], the minimal effective dose [6] was 1 mg/kg, the ED50 (mice) was over 100 mg/kg and the “anxiolytic activity (in words)” value (Male Wistar rats [1]) was “the most active members in the structural group”. For the same molecule, the minimal effective dose (Male Wistar rats [1]) was 0.03 mg/kg and the “Inhibition of the conditioned reflex (%)” value (Male Wistar rats [5]) was 7%.
In the case of `CCCC(C)(COC(N)=O)COC(N)=O` [Meprobamate, reference compound], the minimal effective dose [6] was over 10 mg/kg and the minimal effective dose (Male Wistar rats [1]) was 25 mg/kg.
